Test [1] has as its target T1, STAT3 (Homo sapiens, UniProt P40763). Put plainly: EGF-stimulated STAT3 phosphorylation in MDA-MB-468 cells. The class given is cell-based. Further details: host or cells: MDA-MB-468 breast tumor cells. As to conditions: 1.5 hr prodrug, then EGF 100 ng/mL 30 min. How it is done:
(§1) Effect of prodrug on the phosphorylation of STAT3, STAT5 and Akt in response to Epidermal Growth Factor stimulation. MDA-MB-468 cells were prepared as above. Prodrugs were prepared as 10 mM stock solutions in DMSO and aliquots were added to the culture media to give the correct final concentrations. After 1.5 hr EGF was added at 100 ng/mL. After 30 minutes cells were collected and lysed and proteins were separated by PAGE and transferred to three PVDF filters as above. The first filter was blocked with 5% bovine serum albumin and probed for total and phosphoStat3 as above. The second filter was probed for phosphoSer473Akt and total Akt using appropriate antibodies and similar detection procedures to those used for STAT3. The third filter was probed for phosphoTyr699 Stat5 and total STAT5 using appropriate antibodies and similar detection procedures to those used for STAT3.

The next test addresses T2, STAT1 (Homo sapiens, UniProt P42224).
T2 sequence (P42224 1-750): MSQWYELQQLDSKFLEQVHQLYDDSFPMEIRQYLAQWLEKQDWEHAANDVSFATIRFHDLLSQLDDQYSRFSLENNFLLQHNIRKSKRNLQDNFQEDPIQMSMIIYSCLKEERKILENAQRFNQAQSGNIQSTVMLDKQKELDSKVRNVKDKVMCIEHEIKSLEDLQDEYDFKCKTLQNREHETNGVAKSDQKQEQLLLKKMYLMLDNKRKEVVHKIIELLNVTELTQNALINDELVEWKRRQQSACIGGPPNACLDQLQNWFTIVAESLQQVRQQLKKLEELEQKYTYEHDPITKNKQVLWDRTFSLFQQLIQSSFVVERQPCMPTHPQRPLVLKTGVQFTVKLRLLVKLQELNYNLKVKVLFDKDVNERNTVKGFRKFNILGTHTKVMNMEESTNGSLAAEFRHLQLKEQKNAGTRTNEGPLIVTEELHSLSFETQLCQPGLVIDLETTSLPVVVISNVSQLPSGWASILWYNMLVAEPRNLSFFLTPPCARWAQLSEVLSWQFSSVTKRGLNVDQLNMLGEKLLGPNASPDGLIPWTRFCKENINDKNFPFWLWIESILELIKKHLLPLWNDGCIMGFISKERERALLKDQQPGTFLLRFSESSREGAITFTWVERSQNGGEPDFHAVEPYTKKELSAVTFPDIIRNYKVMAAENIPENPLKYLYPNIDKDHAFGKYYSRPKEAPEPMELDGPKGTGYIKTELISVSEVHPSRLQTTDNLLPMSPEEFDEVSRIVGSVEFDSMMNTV
Put plainly: IFNγ-stimulated STAT1 phosphorylation in MDA-MB-468 cells. It counts as cell-based. Further details: host or cells: MDA-MB-468 breast tumor cells. As to the method: Effect of Prodrug on the phosphorylation of STAT1 in MDA-MB-468 breast tumor cells. MDA-MB-468 cells were prepared as above. Prodrugs were prepared as 10 mM stock solutions in DMSO and aliquots were added to the culture media to give the correct final concentrations. After 1.5 hr interferonγ was added at 25 ng/mL. After 30 minutes cells were collected and lysed and proteins were separated by PAGE and transferred to PVDF filters as above. Filters were probed for phosphoTyr701 Stat 1 and total Stat1 using appropriate antibodies and similar detection procedures to those used for Stat3.

In test [2] the test system is Focal Adhesion Kinase (FAK). Put plainly: Phosphorylation of Focal Adhesion Kinase Tyr861 in MDA-MB-468 cells. The class given is cell-based, human. As to conditions: 2 hr treatment. The text has this:
Effect of Prodrug on the phosphorylation of Focal Adhesion Kinase (FAK) in MDA-MB-468 breast tumor cells. MDA-MB-468 cells express constitutive phosphorylation of Tyr861 of FAK (Laird, A. et al., Src Family Kinase Activity is Required For Signal Tranducer and Activator of Transcription 3 and Focal Adhesion Kinase Phosphorylation and Vascular Endothelial Growth Factor Signaling In Vivo and For Anchorage-Dependent and Independent Growth Of Human Tumor Cells, Mol Cancer Ther, 2, 461-9(2003). a unique substrate of Src upon recruitment via its SH2 domain (Calalb, M. B., et al, S. K. Focal adhesion kinase tyrosine-861 is a major site of phosphorylation by Src. Biochem Biophys Res Commun 1996, 228, 662-8 (1996.) To test for cross reactivity to the Src SH2 domain, MDA-MB-468 cell extracts were probed for phosphorylation of Tyr861 of FAK.

The target of test [3] is T1, STAT3. Put plainly: Inhibition of Stat3 tyrosine705 phosphorylation in MDA-MB-468 cells. It counts as cell-based. Set-up: host or cells: MDA-MB-468 breast tumor cells. The following applies: 2 h. As to the method: Inhibition of Stat3 tyrosine705 phosphorylation in MDA-MB-468 cells. MDA-MB-468 breast tumor cells (0.4×10^6) were plated onto 35 mm culture dishes and were allowed to grow overnight. Prodrugs were prepared as 10 mM stock solutions in DMSO and aliquots were added to the culture media to give the correct final concentrations. After 2 h the cells were washed with ice cold phosphate buffered saline. Washed cells were treated with lysis buffer (50 mM Hepes, pH 7.4, 150 mM NaCl, 1.5 mM MgCl2, 1 mM EGTA, 100 mM NaF, 10 mM sodium pyrophosphate, 10% glycerol, 1% Triton X-100, 1 mM PMSF, 1 mM Na3VO4, 10 μg/mL leupeptin and 10 μg/mL aprotinin). Cell-free detergent extracts were centrifuged at 15,000 rpm in a microcentriguge for 30 min at 4° C. and the protein concentrations of the supernatants determined. Aliquots containing 12 μg of protein were separated on 8% SDS-PAGE and were transferred to PVDF filters. The filters were blocked with 5% bovine serum albumin and were probed with pStat3^Y705 antibody followed by secondary antibody, whose signal was detected with an enhanced chemiluminescence kit (ECL, Amersham, Chicago, Ill.). Filters were stripped with stripping buffer (62.5 mM Tris, pH 6.8, 2% SDS, and 0.1 M 2-mercaptoethanol) at 50° C. for 30 min. Filters were then probed with total Stat3 antibody and visualized with chemiluminescence as above.

In a further test the test system is STAT5. Put plainly: EGF-stimulated STAT5 phosphorylation in MDA-MB-468 cells. The class given is cell-based, human. The following applies: 1.5 hr prodrug, then EGF 100 ng/mL 30 min. How it is done:
as §1

A further test deals with Akt. Nature of the test: EGF-stimulated Akt Ser473 phosphorylation in MDA-MB-468 cells. The class given is cell-based, human. The following applies: 1.5 hr prodrug, then EGF 100 ng/mL 30 min. How it is done:
as §1

The subject of test [4] is MDA7, MDA-MB-231, SUM149, and SUM190. Put plainly: Anchorage-independent growth in soft agar, four breast tumor models. It counts as cell-based. As to conditions: MDA7, MDA-MB-231, SUM149, SUM190; 28 days. How it is done:
(§2) Assay for anchorage-independent growth in soft agar Cells (5×10^5) were suspended in 1× DMEM/HEPES, 10% heat-inactivated FBS, 0.13% bicarbonate, and 0.33% BBL agar. The cells were plated on 1% base agar plates (60 mm) containing 1× DMEM/HEPES, 10% heat-inactivated FBS, and 1% BBL agar. Fresh serum-containing medium was fed to the cells on 3-day intervals. The dishes were then incubated at 37° C. with 5% CO2 for 28 days. The colonies that grew in soft agar were photographed and counted. Data are expressed as the number of colonies formed per plate±S.E.M. and three plates were counted per cell line.

Test [5] has as its target T1, STAT3. Nature of the test: Inhibition of STAT3 phosphorylation in BT20 breast tumor cells (western blot). The class given is cell-based. Set-up: endogenous in cells; host or cells: BT20 breast tumor cells. The following applies: BT20 time course. As to the method:
Inhibition of STAT3 in BT20 Breast Tumor Cells. General procedure: 35 mm petri dishes were plated with 300,000 BT20 cells in 2 mL RPMI1640 media containing 10% FBS, […], streptomycin, and glutamine. Prodrugs were dissolved in DMSO and were added to the cells with fresh media at varying concentrations. After 2 h the cells were washed with ice cold phosphate buffered saline. Washed cells were treated with lysis buffer (50 mM Hepes, pH 7.4, 150 mM NaCl, 1.5 mM MgCl2, 1 mM EGTA, 100 mM NaF, 10 mM sodium pyrophosphate, 10% glycerol, 1% Triton X-100, 1 mM PMSF, 1 mM Na3VO4, 10 μg/mL leupeptin and 10 μg/mL aprotinin). Cell-free detergent extracts were centrifuged at 15,000 rpm in a microcentriguge for 30 min at 4° C. and the protein concentrations of the supernatants determined. Aliquots containing 12 μg of protein were separated on 8% SDS-PAGE and were transferred to PVDF filters. The filters were blocked with 5% bovine serum albumin and were probed with pStat3^Y705 antibody followed by secondary antibody, whose signal was detected with an enhanced chemiluminescence kit (ECL, Amersham, Chicago, Ill.). Filters were stripped with stripping buffer (62.5 mM Tris, pH 6.8, 2% SDS, and 0.1 M 2-mercaptoethanol) at 50° C. for 30 min. Filters were then probed with total Stat3 antibody and visualized with chemiluminescence as above.
Because DMSO is toxic, other formulations were evaluated for potential use in animal models. The compound of Example 1 was dissolved in EtOH, 20% (w/v) Trappsol (hydroxypropyl β-cyclodextran, pharmaceutical grade), or a liposomal formulation to a concentration of 5 mM. These formulations were given to cells at 0.1, 0.5, and 5 μM concentrations. At two hours, cells were lysed and pSTAT3 levels were determined by Western Blot (FIG. 3). Different formulations have little effect on inhibition of STAT3. The compound of Example 1 was dissolved in DMSO, EtOH, Trappsol, or as a 10 mol % mixture in dimyristoylphosphatidyl choline and applied to BT20 cell in culture. After two hours, cells were lysed and pSTAT3 levels determined by Western blot. To prepare liposomes a solution of 1.0 mg of the compound of Example 1, 7.2 mg of DMPC, 0.41 mg of Tween 20 in 1.0 mL of tert-butanol was lyophilized. A control lipid formulation of 7.2 mg of DMPC and 0.41 mg of Tween 20 in 1.0 mL of tert-butanol was lyophilized. These samples were mixed with 236 μL of H2O and were vortexed and sonicated for 5 min.
The compounds are selective for STAT3 over STAT1 in BT20 breast tumor cells. BT20 cells prepared as above and were treated with 5 μM of the compound of Example 1 for two hours then were treated with 25 ng/mL of interferon γ (IFNγ). […] (FIG. 4, bottom panel).
Time course of inhibition of STAT3 phosphorylation in BT20 cells. BT20 cells were plated as above and treated with the compounds from Examples 1 and 6 and western blots were performed at varying time intervals.

Test [6] relates to SUM149 inflammatory breast tumor cells. Nature of the test: Anchorage-independent growth in soft agar, SUM149. The following applies: 28 days. The class given is cell-based. How it is done:
as §2

For test [7], the system named is SUM149 and MDA-MB-231 cells. Nature of the test: In vitro invasion of an artificial basement membrane. The class given is cell-based, human. As to conditions: 5 μM in DMSO; 72 hours. How it is done: Effect of prodrugs on in vitro invasion of an artificial basement membrane by human breast cancer cells. SUM149 and MDA-MB-231 cells were trypsinized, resuspended in serum-supplemented medium, and counted. Cells were then washed 3 times with serum-free medium. Plates (6-well) compatible with transwell inserts with 8 μm pore-size polycarbonate filters (Fisher Scientific) were coated with Matrigel in cold serum-free DMEM/F12 at a final concentration of 0.7 mg/mL and held at room temperature for 40 minutes. Cells (in 500 μL serum-free medium) were added into the transwell inserts and incubated for 72 hours in the absence or presence 5 μM prodrug in DMSO (1% by volume). For a control, 10% FBS was used to evaluate the baseline extent of invasion of the different cell lines. After incubation, noninvading cells on the upper surface of the filter were removed with cotton swabs. Cells that had passed through the pores onto the lower side of the filter were fixed, stained with Hema-3 stain (Fisher Scientific), and quantified. The experiments were performed in triplicate and were repeated twice.

“Also recorded” adds a separate entry of the source.

T1 sequence (P40763 whole entry): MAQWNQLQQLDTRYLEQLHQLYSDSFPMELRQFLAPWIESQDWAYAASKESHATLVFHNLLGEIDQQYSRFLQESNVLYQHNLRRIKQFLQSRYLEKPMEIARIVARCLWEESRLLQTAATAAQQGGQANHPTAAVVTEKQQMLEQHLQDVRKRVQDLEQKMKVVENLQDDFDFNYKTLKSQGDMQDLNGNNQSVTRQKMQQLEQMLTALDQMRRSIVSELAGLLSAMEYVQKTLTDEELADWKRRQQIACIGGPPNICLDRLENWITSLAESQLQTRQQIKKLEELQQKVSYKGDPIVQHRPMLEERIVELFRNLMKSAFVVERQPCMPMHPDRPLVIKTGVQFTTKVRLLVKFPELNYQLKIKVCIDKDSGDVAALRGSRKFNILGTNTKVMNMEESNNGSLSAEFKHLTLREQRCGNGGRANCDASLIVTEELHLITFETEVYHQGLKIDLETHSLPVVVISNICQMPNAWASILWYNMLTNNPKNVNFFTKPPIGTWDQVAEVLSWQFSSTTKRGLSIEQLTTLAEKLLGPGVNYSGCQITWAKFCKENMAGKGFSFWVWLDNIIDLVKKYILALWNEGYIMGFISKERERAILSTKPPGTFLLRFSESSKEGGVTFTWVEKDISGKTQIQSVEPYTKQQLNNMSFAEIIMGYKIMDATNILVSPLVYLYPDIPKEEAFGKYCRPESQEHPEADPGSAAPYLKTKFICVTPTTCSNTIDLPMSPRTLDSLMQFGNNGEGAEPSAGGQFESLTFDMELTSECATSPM

As for `CCCC[C@H](NC(=O)/C=C(\C)c1ccc(C(F)(F)P(=O)(OCOC(=O)C(C)(C)C)OCOC(=O)C(C)(C)C)cc1)C(=O)N1C[C@H]2CC2[C@H]1C(=O)N[C@H](C)CCC(N)=O` (stereo partly drawn) [Example 18, (2E)-3-[4-[[bis[(2,2-dimethyl-1-oxopropoxy)methoxy]phosphinyl]difluoromethyl]phenyl]-but-2-enoyl-norleucinyl-(2S,3R,4S)-methanoprolinyl-(R)-4-aminopentamide], the “EGF-induced increase in Stat3 phosphorylation” value on STAT3 [1] is on record as “effective at inhibiting”. The “inhibition of Stat1 phosphorylation compared with Stat3 phosphorylation” value on STAT1 (1.5 hr prodrug, then interferonγ 25 ng/mL 30 min) was “less effective”. Besides, the “fold less potent at inhibiting STAT1 than STAT3” value on STAT1 (MDA-MB-468 cells) is “about 10 fold”. For the same compound, the “phosphorylation of FAK Tyr861” value in test [2] is listed as “no reduction; also recorded: do not inhibit”. In addition, at STAT3 [3], the “concentration as low as which partial inhibition of STAT3 phosphorylation was seen” value was 10 nM and the “concentration at which complete inhibition of STAT3 phosphorylation occurred” value was 500 nM. In addition, the “inhibition of Tyr705 phosphorylation of Stat3 (potency in words)” value at STAT3 [3] (prodrug in DMSO) is “very potent inhibitors; also recorded: inhibit phosphorylation of STAT3”. Besides, the “Stat5 phosphorylation after EGF” value in the test with STAT5 was “no effect”. The “Akt Ser473 phosphorylation after EGF” value in the test on Akt is “no effect”.
`C/C(=C\C(=O)N[C@H]1CCc2cccc3c2N(C1=O)[C@H](C(=O)N[C@H](C)CCC(N)=O)C3)c1ccc(C(F)(F)P(=O)(Oc2ccccc2)Oc2ccccc2)cc1` [Example 8, (E)-3-[4-[(Diphenoxyphosphinyl)difluoromethyl]phenyl]-but-2-enoyl-Haic-(R)-4-aminopentamide]: the “colony formation in soft agar, four breast tumor models” value in test [4] is “inhibition”. Besides, the “effectiveness of phosphate (X=O) relative to difluoromethyl phosphonate Example 1 (X=CF2)” value on STAT3 [5] is listed as “as effective as”. The “colony formation in soft agar” value in test [6] is “inhibition of colony formation”. In [7], the “invasion through the artificial basement membrane” value was “inhibited invasion”.

The record behind these values is US8841257B2, “Inhibitors of STAT3 and uses thereof” (Board of Regents, The University of Texas System, priority 2009, dated 2014).
